Measurements published in US20260365641A1, “Aromatic Acetylene Derivative, Preparation Method Therefor, And Use Thereof” (Zhejiang Hisun Pharmaceutical Co., Ltd., priority 2022, published 2026).
≈ marks a conversion by molar mass, not a printed value.

Columns and labels:
[1] = target: T1, recombinant Pseudomonas aeruginosa LpxC (Pseudomonas aeruginosa, UniProt P47205); assay: Inhibition of enzymatic activity of recombinant Pseudomonas aeruginosa LpxC in vitro; format: biochemical; conditions: 5 nM LpxC; substrate UDP-3-O—(R-3-hydroxydecanoyl)-GlcNAc; 25 °C, 120 minutes; fluorescamine readout
T1 construct: purchased Signalway Antibody AP74647-2
T1 sequence (P47205 1-303): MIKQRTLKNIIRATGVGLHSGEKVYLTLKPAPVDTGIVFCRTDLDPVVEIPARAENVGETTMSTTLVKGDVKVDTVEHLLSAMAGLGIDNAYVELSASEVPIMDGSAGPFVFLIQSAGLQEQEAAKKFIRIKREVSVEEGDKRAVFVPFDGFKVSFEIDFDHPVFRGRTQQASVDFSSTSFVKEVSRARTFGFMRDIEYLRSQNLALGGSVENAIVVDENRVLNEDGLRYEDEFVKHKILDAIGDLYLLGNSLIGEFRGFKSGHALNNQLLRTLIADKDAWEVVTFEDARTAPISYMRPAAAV
Method: The following method was used to determine degrees of inhibition of the compounds of the present invention on the enzymatic activity of recombinant Pseudomonas aeruginosa LpxC in vitro.
The test process was briefly described as follows: the tested compound was first dissolved in DMSO to prepare a 10 mM storage solution. The reaction was carried out in a 96-well microplate. Firstly, 20 μL of recombinant Pseudomonas aeruginosa LpxC (purchased from Signalway Antibody, article number AP74647-2) was added into the wells, and the final concentrations were 5 nM respectively. 5 μL of the compound to be tested was added, diluted in 4-fold, with 8 concentration points, and the concentration range was 0.61-10000 nM. 5 μL of LpxC substrate UDP-3-O—(R-3-hydroxydecanoyl)-GlcNAc (purchased from Biosynth Carbosynth, article number mu75071) was added, wherein a final concentration of the substrate was […], and the substrate was incubated at 25 °C for 120 minutes. Subsequently, 20 μL of 2.0 mg/mL fluorescamine (purchased from sigma aldrich, article number F9015, wherein a solvent was dimethylformamide/acetonitrile (1:1)) was added to the reaction system, mixed evenly and reacted for 10 minutes. Finally, 50 μL of 200 mM sodium phosphate buffer solution (pH 8.0) was added to stop the reaction, and a microplate reader (BMG) was used for reading. An excitation wavelength and an emission wavelength were 390 nm and 495 nm respectively. Compared with the fluorescence intensity ratio of a control group (0.1% DMSO), the percentage inhibition rates of the compounds at each concentration were calculated, and the IC50 values of the compounds were obtained by performing nonlinear regression analysis with logarithmic value of the compound concentration-inhibition rate by GraphPad Prism 5 software, which can be seen in Table 1.

E. coli ATCC 25922 = assay: Antibacterial activity, minimum inhibitory concentration (MIC) in vitro, broth dilution; format: cell-based; conditions: Escherichia coli, ATCC25922, 5×10^5 cfu/mL, 35 °C, 18-24 hours
Method: (§1) The minimum inhibitory concentration (MIC) in vitro was determined according to CLSI's guidelines, and a minimal broth dilution method was used.
(§2) The test process was briefly described as follows: the tested compound was dissolved in DMSO to prepare a storage solution of […], and then prepared into 11 two-fold-diluted 100× high-concentration working liquids (a final concentration of the system was 64 μg/mL to 0.06 μg/mL) by DMSO. Stains (K. pneumoniae ATCC13883, K. pneumoniae ATCC51504 and E. coli ATCC 25922) frozen at −80 °C with glycerin were inoculated to a solid agar culture medium, placed into an incubator for culturing for 18-24 hours at 35 °C to finish the preparation work of the strains. A proper amount of solid plate culture was collected, re-suspended in normal saline, and uniformly mixed. The turbidity of the bacterial suspension was adjusted to a proper turbidity by a turbidity meter, containing about 1×10^8 cfu/mL of bacteria. Then, the turbidity-regulated bacterial suspension was diluted with a test culture medium (type: CAMHIIB, purchased from BD company) to a bacterial concentration of 5×10^5 cfu/mL, thus finishing the preparation of an inoculation solution. 198 μL of the inoculation solution was inoculated into a 96-well plate, and added with 2 μL 100× high concentration working liquid of the compound, then the 96-well plate was placed at 35 °C for culturing for 18-24 hours.

K. pneumoniae ATCC51504 = assay: as above; format: cell-based; conditions: Klebsiella pneumoniae, 5×10^5 cfu/mL, 35 °C, 18-24 hours
Method: as §1, §2

Compound	IC50 [1] [nM]	MIC (E. coli ATCC 25922) [µg/mL]	MIC (K. pneumoniae ATCC51504) [µg/mL]
C[C@H](O)c1nccn1Cc1cc(-c2ccc(C#CC3=CCN(C(=O)C4CC4)CC3)cc2)on1 [Example 36, (S)-cyclopropyl(4-((4-(3-((2-(1-hydroxyethyl)-1H-imidazol-1-yl)methyl)isoxazol-5-yl)phenyl)ethynyl)-3,6-dihydropyridin-1(2H)-yl)methanone]	19	1 (≈ 2.26 µM)	0.25 (≈ 0.565 µM)
C[C@H](O)c1nccn1Cc1cc(-c2ccc(C#CC3=CCN(C(=O)c4cnccn4)CC3)cc2)on1 [Example 38, (S)-(4-((4-(3-((2-(1-hydroxyethyl)-1H-imidazol-1-yl)methyl)isoxazol-5-yl)phenyl)ethynyl)-3,6-dihydropyridin-1(2H)-yl)(pyrazin-2-yl)methanone]	22.7	0.25 (≈ 0.52 µM)	0.5 (≈ 1.04 µM)
C[C@H](O)c1nccn1Cc1cc(-c2ccc(C#CC3=CCN(C(=O)c4ccnnc4)CC3)cc2)on1 [Example 39, (S)-(4-((4-(3-((2-(1-hydroxyethyl)-1H-imidazol-1-yl)methyl)isoxazol-5-yl)phenyl)ethynyl)-3,6-dihydropyridin-1(2H)-yl)(pyridazin-4-yl)methanone]	21.7	2 (≈ 4.16 µM)	1 (≈ 2.08 µM)
C[C@H](O)c1nccn1Cc1cc(-c2ccc(C#CC3=CCN(C(=O)c4cncnc4)CC3)cc2)on1 [Example 40, (S)-(4-((4-(3-((2-(1-hydroxyethyl)-1H-imidazol-1-yl)methyl)isoxazol-5-yl)phenyl)ethynyl)-3,6-dihydropyridin-1(2H)-yl)(pyrimidin-5-yl)methanone]	21.4	2 (≈ 4.16 µM)	0.5 (≈ 1.04 µM)
C[C@H](O)c1nccn1Cc1cc(-c2ccc(C#CC3=CCN(C(=O)C4CCOC4)CC3)cc2)on1 (stereo partly drawn) [Example 41, (4-((4-(3-((2-((S)-1-hydroxyethyl)-1H-imidazol-1-yl)methyl)isoxazol-5-yl)phenyl)ethynyl)-3,6-dihydropyridin-1(2H)-yl)(tetrahydrofuran-3-yl)methanone]	22.3	1 (≈ 2.12 µM)	0.25 (≈ 0.529 µM)
C[C@H](O)c1nccn1Cc1cc(-c2ccc(C#CC3=CCN(C(=O)C4COCCN4)CC3)cc2)on1 (stereo partly drawn) [Example 42, (4-((4-(3-((2-((S)-1-hydroxyethyl)-1H-imidazol-1-yl)methyl)isoxazol-5-yl)phenyl)ethynyl)-3,6-dihydropyridin-1(2H)-yl)(morpholin-3-yl)methanone]		4 (≈ 8.2 µM)	2 (≈ 4.1 µM)
C[C@H](O)c1nccn1Cc1cc(-c2ccc(C#CC3=CCN(CCn4cncn4)CC3)cc2)on1 [Example 43, (S)-1-(1-((5-(4-((1-(2-(1H-1,2,4-triazol-1-yl)ethyl)-1,2,3,6-tetrahydropyridin-4-yl)ethynyl)phenyl)isoxazol-3-yl)methyl)-1H-imidazol-2-yl)ethan-1-ol]	25.8	2 (≈ 4.26 µM)	1 (≈ 2.13 µM)
C[C@H](O)c1nccn1Cc1cc(-c2ccc(C#CC3=CCN(CCC#N)CC3)cc2)on1 [Example 44, (S)-3-(4-((4-(3-((2-(1-hydroxyethyl)-1H-imidazol-1-yl)methyl)isoxazol-5-yl)phenyl)ethynyl)-3,6-dihydropyridin-1(2H)-yl)propanenitrile]	24.9	1 (≈ 2.34 µM)	0.5 (≈ 1.17 µM)
C[C@H](O)c1nccn1Cc1cc(-c2ccc(C#CC3=CCN(C(=O)c4cccnc4)CC3)cc2)on1 [Example 45, (S)-(4-((4-(3-((2-(1-hydroxyethyl)-1H-imidazol-1-yl)methyl)isoxazol-5-yl)phenyl)ethynyl)-3,6-dihydropyridin-1(2H)-yl)(pyridin-3-yl)methanone]	12.3	1 (≈ 2.09 µM)	0.5 (≈ 1.04 µM)
C[C@H](O)c1nccn1Cc1cc(-c2ccc(C#CC3CC4(C3)CN(C(=O)c3ncn[nH]3)C4)cc2)on1 [Example 55, (S)-(6-((4-(3-((2-(1-hydroxyethyl)-1H-imidazol-1-yl)methyl)isoxazol-5-yl)phenyl)ethynyl)-2-azaspiro[3.3]heptan-2-yl)(1H-1,2,4-triazol-5-yl)methanone]	14.7	2 (≈ 4.14 µM)	2 (≈ 4.14 µM)
C[C@H](O)c1nccn1Cc1cc(-c2ccc(C#CC3=CCN(C=O)CC3)cc2)on1 [Example 57, (S)-4-((4-(3-((2-(1-hydroxyethyl)-1H-imidazol-1-yl)methyl)isoxazol-5-yl)phenyl)ethynyl)-3,6-dihydropyridine-1(2H)-carbaldehyde]	29.4	2 (≈ 4.97 µM)	1 (≈ 2.48 µM)
C[C@H](O)c1nccn1Cc1cc(-c2ccc(C#CC3=CCN(C(N)=O)CC3)cc2)on1 [Example 58, (S)-4-((4-(3-((2-(1-hydroxyethyl)-1H-imidazol-1-yl)methyl)isoxazol-5-yl)phenyl)ethynyl)-3,6-dihydropyridine-1(2H)-carboxamide]	19.2	1 (≈ 2.4 µM)	1 (≈ 2.4 µM)
C[C@H](O)c1nccn1Cc1cc(-c2ccc(C#CC3=CCN(CC(N)=O)CC3)cc2)on1 [Example 59, (S)-2-(4-((4-(3-((2-(1-hydroxyethyl)-1H-imidazol-1-yl)methyl)isoxazol-5-yl)phenyl)ethynyl)-3,6-dihydropyridin-1(2H)-yl)acetamide]	23.8	2 (≈ 4.64 µM)	0.5 (≈ 1.16 µM)
C[C@H](O)c1nccn1Cc1cc(-c2ccc(C#CC3=CCN(C(=O)N4CCOCC4)CC3)cc2)on1 [Example 60, (S)-(4-((4-(3-((2-(1-hydroxyethyl)-1H-imidazol-1-yl)methyl)isoxazol-5-yl)phenyl)ethynyl)-3,6-dihydropyridin-1(2H)-yl)(morpholino)methanone]	25.3	2 (≈ 4.1 µM)	1 (≈ 2.05 µM)
C[C@H](O)c1nccn1Cc1cc(-c2ccc(C#CC3=CCN(C(=O)c4ccccn4)CC3)cc2)on1 [Example 61, (S)-(4-((4-(3-((2-(1-hydroxyethyl)-1H-imidazol-1-yl)methyl)isoxazol-5-yl)phenyl)ethynyl)-3,6-dihydropyridin-1(2H)-yl)(pyridin-2-yl)methanone]	11.5	1 (≈ 2.09 µM)	0.5 (≈ 1.04 µM)
CC(=O)N1CC=C(C#Cc2ccc(-c3cc(Cn4ccnc4[C@H](C)O)no3)cc2)CC1 [Example 62, (S)-1-(4-((4-(3-((2-(1-hydroxyethyl)-1H-imidazol-1-yl)methyl)isoxazol-5-yl)phenyl)ethynyl)-3,6-dihydropyridin-1(2H)-yl)ethan-1-one]	18	0.5 (≈ 1.2 µM)	0.5 (≈ 1.2 µM)
C[C@H](O)c1nccn1Cc1cc(-c2ccc(C#CC3=CCN(C(=O)CO)CC3)cc2)on1 [Example 63, (S)-2-hydroxy-1-(4-((4-(3-((2-(1-hydroxyethyl)-1H-imidazol-1-yl)methyl)isoxazol-5-yl)phenyl)ethynyl)-3,6-dihydropyridin-1(2H)-yl)ethan-1-one]	23.6	0.5 (≈ 1.16 µM)	0.5 (≈ 1.16 µM)
C[C@H](O)c1nccn1Cc1cc(-c2ccc(C#CC3=CCN(C(=O)C4COCCO4)CC3)cc2)on1 (stereo partly drawn) [Example 64, (1,4-dioxan-2-yl)(4-((4-(3-((2-((S)-1-hydroxyethyl)-1H-imidazol-1-yl)methyl)isoxazol-5-yl)phenyl)ethynyl)-3,6-dihydropyridin-1(2H)-yl)methanone]	19.1	1 (≈ 2.05 µM)	0.5 (≈ 1.02 µM)
